According to ChEMBL document CHEMBL1147308, “Novel secoiridoid lactones from Jasminum multiflorum” (1989):
The source made the active and inactive calls. No cut-off for these calls is given here.

Key:
[1] = test system: Heart; test: Coronary dilatory activity in perfused guinea pig heart assessed as minimum effective concentration; format: functional, Cavia porcellus
[2] = test system: Heart; test: Cardiotropic activity in perfused guinea pig heart assessed as minimum effective concentration; format: functional, Cavia porcellus
[3] = test system: Heart; test: Cardiotropic activity in perfused guinea pig heart assessed as negative ionotropy; format: functional, tissue-based; details: Cavia porcellus
[4] = test system: Heart; test: Cardiotropic activity in perfused guinea pig heart assessed as negative chronotropy; format: functional, tissue-based; details: Cavia porcellus
[5] = test system: Heart; test: Cardiotropic activity in perfused guinea pig heart assessed as positive ionotropy; format: functional, tissue-based; details: Cavia porcellus
[6] = test system: Heart; test: Cardiotropic activity in perfused guinea pig heart assessed as positive chronotropy; format: functional, tissue-based; details: Cavia porcellus

Question: What does the source list for `COC(=O)C1=CO[C@@H](O)[C@H]2[C@@H]1CC(=O)OC[C@H]2OCCc1ccc(O)c(O)c1` [JASMOLACTONE A]?
Answer: MEC [1]: 1.3 ×10⁻⁵ M; MEC [2]: 2.5 ×10⁻⁵ M; Activity [3]: Active; Activity [4]: inactive

Question: Which results are given for `O=C1C[C@@H]2C(C(=O)OCCc3ccc(O)c(O)c3)=CO[C@@H](O)[C@@H]2[C@H](OCCc2ccc(O)c(O)c2)CO1` [JASMOLACTONE B]?
Answer: MEC [1]: 4.8 ×10⁻⁶ M; MEC [2]: 9.7 ×10⁻⁶ M; Activity [3]: Active; Activity [4]: inactive

Question: `CC(C)NCC(O)c1ccc(O)c(O)c1` (configuration not stated) [ISOPROTERENOL] was tested. Which MEC [1] did it give?
Answer: 4.7 ×10⁻⁷ M

Question: What about the MEC [2] of the same compound?
Answer: 4.7 ×10⁻⁸ M

Question: And the Activity [5]?
Answer: Active

Question: And the Activity [6]?
Answer: Active
